Results on 1 compound are retold here after patent US9586916B2, “Integrin antagonist conjugates for targeted delivery to cells expressing alpha-V-beta-3” (Hoffmann-La Roche Inc., priority 2012, dated 2017).

The target in the experiment is T1, αVβ3 (Homo sapiens, UniProt P05106+P06756).
T1 construct: purchased R & D 3050-AV
Briefly: Human αVβ3 solid phase assay (fibrinogen binding to coated αVβ3). Particulars: αVβ3 coated plates, fibrinogen as ligand. As to the method:
The following assay was conducted to assess αVβ3 binding affinity of the αVβ3-targeted compounds of this invention.
Human αVβ3 solid phase assay:
Immuno 96-well Plates (NUNC, Part#439454) were coated with αVβ3 (R & D, Cat#3050-AV) by adding 100 uL of αVβ3 (lx) to each well and incubating the plates overnight at […]. Buffer used was Buffer A: 20 mM Tris, 150 mM NaCl, 1 mM CaCl2, 1 mM MgCl2, pH7.4. After removal of the coating reagent, 150 uL of 3.5% BSA in Buffer A was added to each well to block the plates for 105 minutes at […]. After blocking, plates were washed 5 times with 200 uL of Buffer B (Buffer A+1 mM MnC12). 50 uL of test compound solution (2×) in 5% DMSO and 50 uL of fibrinogen (2×) (Innovative Research, Cat# IFIB) were then added to each well. Plates were shaken for 2 minutes, and then incubated for 2 hours for 370 C. After the plates were washed 5 times with 200 uL of Buffer B, the 1st antibody rabbit anti-human fibrinogen (Innovative Research, Cat IASHFBGN-GF) in the amount of 100 uL/well, and the 2nd antibody Goat anti-rabbit IgG Horse-radish peroxidase conjugate (Invitrogen, Cat#G21234) in the amount of 50 uL/well were added to plates, respectively. […] After being added 100 uL/well Stop Buffer (1.0 M Phosphoric Acid […]), plates were read on Envision at Absorbance mode 450 nm.

T1 sequence (P06756 31-992 limits assumed): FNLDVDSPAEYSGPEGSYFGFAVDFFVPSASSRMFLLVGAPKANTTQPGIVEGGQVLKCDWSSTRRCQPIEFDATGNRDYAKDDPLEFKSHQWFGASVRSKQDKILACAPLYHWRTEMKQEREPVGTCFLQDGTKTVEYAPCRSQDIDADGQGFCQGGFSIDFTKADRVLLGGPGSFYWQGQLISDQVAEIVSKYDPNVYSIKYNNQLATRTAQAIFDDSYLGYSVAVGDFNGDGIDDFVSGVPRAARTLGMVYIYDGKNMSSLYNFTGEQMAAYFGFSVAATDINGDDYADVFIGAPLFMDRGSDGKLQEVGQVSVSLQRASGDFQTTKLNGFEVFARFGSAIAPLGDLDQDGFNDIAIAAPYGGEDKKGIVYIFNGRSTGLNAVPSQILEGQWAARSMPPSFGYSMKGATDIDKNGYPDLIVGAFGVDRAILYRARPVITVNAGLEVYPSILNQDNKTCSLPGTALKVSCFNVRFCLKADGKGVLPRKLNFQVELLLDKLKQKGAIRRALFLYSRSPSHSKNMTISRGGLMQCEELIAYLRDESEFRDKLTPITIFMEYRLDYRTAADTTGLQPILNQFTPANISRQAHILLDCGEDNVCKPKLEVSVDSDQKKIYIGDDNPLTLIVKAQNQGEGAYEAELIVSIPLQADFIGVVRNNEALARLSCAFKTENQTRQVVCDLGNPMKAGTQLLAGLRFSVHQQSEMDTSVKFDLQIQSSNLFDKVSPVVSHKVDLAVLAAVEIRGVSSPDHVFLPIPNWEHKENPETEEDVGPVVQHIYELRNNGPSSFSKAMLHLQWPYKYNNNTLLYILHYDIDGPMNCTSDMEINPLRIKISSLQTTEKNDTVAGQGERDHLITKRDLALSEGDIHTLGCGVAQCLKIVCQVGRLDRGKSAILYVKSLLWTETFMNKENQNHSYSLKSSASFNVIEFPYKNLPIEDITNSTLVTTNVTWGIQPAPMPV
T1 sequence (P05106 27-718 limits assumed): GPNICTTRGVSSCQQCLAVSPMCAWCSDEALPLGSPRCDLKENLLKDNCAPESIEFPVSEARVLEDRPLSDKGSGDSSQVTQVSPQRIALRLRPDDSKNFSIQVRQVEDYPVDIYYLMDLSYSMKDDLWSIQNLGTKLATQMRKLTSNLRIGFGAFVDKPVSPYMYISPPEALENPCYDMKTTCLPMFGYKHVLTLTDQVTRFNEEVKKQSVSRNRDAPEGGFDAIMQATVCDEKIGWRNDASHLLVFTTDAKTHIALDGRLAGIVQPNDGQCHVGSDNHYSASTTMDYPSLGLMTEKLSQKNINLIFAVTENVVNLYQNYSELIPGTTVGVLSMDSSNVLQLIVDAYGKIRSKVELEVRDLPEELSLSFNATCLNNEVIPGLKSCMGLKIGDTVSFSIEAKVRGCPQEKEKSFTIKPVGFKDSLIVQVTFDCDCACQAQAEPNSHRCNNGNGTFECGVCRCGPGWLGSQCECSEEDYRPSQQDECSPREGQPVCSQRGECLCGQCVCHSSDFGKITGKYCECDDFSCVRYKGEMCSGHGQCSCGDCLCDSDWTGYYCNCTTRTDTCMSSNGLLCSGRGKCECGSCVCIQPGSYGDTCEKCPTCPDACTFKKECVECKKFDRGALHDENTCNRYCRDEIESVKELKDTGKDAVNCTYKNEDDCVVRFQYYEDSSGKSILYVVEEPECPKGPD

One may read the IC50 as the concentration that inhibits the measured activity by half. High values mean weaker potency in that assay, low ones greater potency in that assay. As for `COc1ccc(NC(=O)[C@H](CC(=O)O)NC(=O)CNC(=O)c2cccc(N=C(N)N)c2)cc1` [compound 141], the IC50 is ~2 nM.
